Square brackets hold non-standard residues; d marks the D form. Peptide text beside a SMILES is read from it.

The values that follow come from patent US11331364B2, “Use for JNK inhibitor molecules for treatment of various diseases” (Xigen Inflammation Ltd., priority 2014, dated 2022).

In assay [1] the test system is primary rat lymph-nodes purified T cells. Briefly: CD3/CD28-induced IL-2 release in primary rat lymph-nodes purified T cells. It is filed as cell-based. The settings on record: added 1 h before CD3/CD28 (2 μg/mL); supernatant 24 h. The procedure:
Control rat were sacrificed and lymph-nodes were harvested. T cells further were purified (using magnetic negative selection) and plated into 96-well plates at 200.000 cells/well. Cells were treated with anti-rat CD3 and anti-rat CD28 antibodies (2 μg/mL). JNK inhibitor with SEQ ID NO: 172 was added to the cultures 1 h before CD3/CD28 treatment and IL-2 release was assessed in supernatant 24 h after treatment.
Control animal were sacrificed, lymph nodes (LN) were harvested and kept in complete RPMI medium. LN were smashed with complete RPMI on 70 μm filter using a 5 ml piston. A few drops of media were added to keep strainer wet. Cells were centrifuged for 7 min at 450 g and 4° C. Pellet was resuspended in 5 ml fresh medium. Cells were passed again through cell strainer. An aliquot of cells was counted, while cells were centrifuged again 10 min at 1400 rpm and 4° C. Cells were resuspended in MACS buffer (80 μl of MACS buffer per 10^7 cells). 10 μl of anti-rat MHC microbeads were added per 10 million cells, cells were incubated for 15 min at 4°-8° C. Cells were washed with 15 ml MACS buffer and centrifuge for 7 min at 700 g and 4° C. […] Resuspended cells were counted and plated at density of 200000 cells/well in 100 μl of complete medium. […] Cytokines were then measured using standard Elisa kits. Results are expressed as pg/ml of supernatant of the measured cytokine. […]

The next assay concerns JNK. As to the kind of experiment: JNK and c-Jun activation after Aβ42 stress in WT primary cortical neurons (immunoblot). It is filed as cell-based, mouse. The procedure:
To this end, primary mouse cortical neuron cultures were exposed to either 2 μM or 25 μM of β-amyloid 1-42 (Aβ42) for 5 hours to induce Aβ42 cell stress. Neurons were pre-treated with or without 10 μM of the specific inhibitor of JNK, XG-104 (SEQ ID No. 172). Levels of phosphorylated JNK (pJNK), total JNK (JNK), cleaved PARP and Tubulin (control) were determined. The ratio of pJNK/JNK served as a measure of JNK activity. The level of cleaved protein PARP, which is known to increase during apoptosis, served as a measure of neuronal apoptosis.
To obtain primary cortical neuronal cultures, E15.5 mice embryos were dissected in PBS (Phosphate Buffered Saline) 6% glucose, on ice. Embryos cortices were minced into small pieces and treated with PBS glucose trypsin (Sigma Aldrich, Saint-Louis, USA) for 20 min at 37° C. Dissociated cortical cells were cultured in Neurobasal media complemented with B27, Glutamax and penicillin-streptomycin (Gibco). Neurons were cultured at 37° C., 5% CO2 on pre-coated with poly-L-lysin (Sigma Aldrich) petri dishes. Neurons were cultured to maturity (7 days) before use.
To induce […] stress 2 μM of Aβ1-42 (Thermo Fisher Scientific, Mass., USA) were used during 5 h on cortical neurons. Aβ42-1 inversed peptide (Thermo Fisher Scientific) was used as negative control. AP 1-42 and Aβ42-1 were dissolved in pure water and incubated at 37° C. for 48 h before use. […]
For immunoblot analysis cells were lysed on ice in a lysis buffer containing […] NaPi pH 7.8, […] NaCl, 1% Triton, 0.5% DOC, 0.1% SDS, 10% glycerol, 0.1 μM calyculin A, 1 mM Na3VO4 and 1× of a protease inhibitor cocktail (Sigma Aldrich). Lysates were sonicated and centrifugated 10 min at 15000 g at 4° C. The supernatant protein concentration was determined with the Micro BCA protein assay kit (Thermo Scientific). Thirty micrograms of proteins were resolved on SDS-PAGE and transferred onto nitrocellulose membrane. After blocking with TBS 5% skim milk, the membranes were probed with primary antibodies to JNK full, c-Jun, PKR, eIF2α (Santa Cruz, Danvers, USA), pJNK (Millipore, Billerica, USA), phosphor eIF2a (Thermo Fisher Scientific), PARP and tubulin (Cell Signaling, Danvers, USA). IR Dyes 800 and 700 (Rockland Immunochemical Inc, Gilbertsville, USA) antibodies were used as secondary antibodies. Blots were reveled with Odyssey imaging system (LI-COR Biosciences, Lincoln, USA).

Setting [2] is: WT neurons, 10 μM, 1 h before 2 μM Aβ42, vs stressed WT neurons without peptides.

Consider `CC(C)C[C@H](NC(=O)[C@H](CC(N)=O)NC(=O)[C@H](CC(C)C)NC(=O)[C@@H](NC(=O)[C@@H](C)NC(=O)[C@@H]1CCCN1C(=O)[C@H](CCCNC(=N)N)NC(=O)[C@@H](CCCCN)NC(=O)[C@@H]1CCCN1C(=O)[C@H](CCCNC(=N)N)NC(=O)[C@@H](CCCNC(=N)N)NC(=O)[C@H](CCCNC(=N)N)NC(=O)[C@H](CCCNC(=N)N)NC(=O)[C@H](CCC(N)=O)NC(=O)[C@@H](CCCNC(=N)N)NC(=O)[C@H](CCCNC(=N)N)NC(=O)[C@H](CCCCN)NC(=O)[C@H](CCCCN)NC(=O)[C@H](N)CCCNC(=N)N)[C@@H](C)O)C(=O)N[C@H](Cc1ccccc1)C(N)=O` [SEQ ID NO: 172, rKKRrQRRrRPkRPaTLNLf] (H-[dR]KKR[dR]QRR[dR]RP[dK]RP[dA]TLNL[dF]-NH2; N-terminus assumed), for which the “CD3/CD28-induced IL-2 release” value in assay [1] is reported as “Dose-dependent inhibition”. Further, the “decrease of JNK activity (pJNK/JNK)” value with JNK (2 μM Aβ42 5 hours, 5 μM pre-treatment) is 29.2%; in the assay with JNK (2 μM Aβ42 5 hours, 10 μM pre-treatment), 60%; in the assay with JNK (25 μM Aβ42 5 hours, 5 μM pre-treatment), 17.5%; in the assay with JNK (25 μM Aβ42 5 hours, 10 μM pre-treatment), 59.6%. The JNK activation in the assay with JNK (WT neurons, 10 μM, 1 h before 2 μM Aβ42) is recorded as −60%. In the assay with JNK (setting [2]), the c-Jun expression is reported as −62%. In the assay on JNK (setting [2]), the c-Jun phosphorylation is −29%.
